We go through 14 molecules from patent US20250313546A1, “NUCLEIC ACID BINDERS” (UNIVERSITY OF STRATHCLYDE, priority 2022, published 2025).

Molecules are shown by their SMILES. Values after ≈ are worked out from the molar mass of the structure shown.

Experiment [1] has as its system Escherichia coli (ATCC 25922). Put plainly: Antibacterial MIC, broth microdilution (CLSI). Format: cell-based. Particulars: for MIC80: Escherichia coli, ATCC25922, read-out: MIC80 E. coli.
Experiment [2] concerns Genomic double stranded DNA (salmon). Briefly: Fluorescence intercalator displacement (FID) assay, SYBR-safe probe. Particulars: 20 μM compound, 30° C., lower % = stronger binding. On the procedure: (§1) The ability of compounds of the invention to bind to DNA and RNA was assessed using a fluorescence intercalator displacement assay. Genomic double stranded DNA (salmon) or PolyAU double stranded RNA is treated with probe molecule (Sybr-Safe) that increases its fluorescence upon binding to nucleic acids.
(§2) polyAU RNA (Polyadenylic acid—Polyuridylic acid sodium salt, double-stranded homopolymer, P1537, Merck) or genomic DNA (Deoxyribonucleic acid sodium salt from salmon testes, D1626, Merck) was dissolved in 1 mM pH 7.4 phosphate buffer (containing 0.27 mM potassium chloride, 13.7 mM sodium chloride) to a concentration of 1 mg/mL in, SybrSafe (SYBR® Safe DNA Gel Stain, ×10,000 in DMSO, S33102 Invitrogen) was used as supplied by the manufacturer in DMSO, and compounds of the invention were prepared as 10 mM stocks in DMSO. These stock solutions were diluted appropriately with each other and 1 mM phosphate buffer to give test solutions comprised of 20 μM compound of the invention, 12500-fold dilution of SybrSafe and 3.76 ng/mL RNA/DNA. Control solutions of RNA/DNA and SybrSafe, RNA/DNA, and SybrSafe at these concentrations were also prepared. Test and control solutions were heated to 30° C. and the fluorescence of each solution was measured using the SYBER filter setting of a StepOnePlus using melt analysis mode (StepOne Software v2.3). The reduction of fluorescence due to the binding of the compound of the invention to the RNA/DNA was calculated as a normalised percentage based on the fluorescence measured due to the control with SybrSafe and RNA/DNA as maximum and the control with only SybrSafe as minimum.
(§3) A reduction in normalised % is indicative of probe displacement and thus strong nucleic acid binding.

Experiment [3] deals with PolyAU double stranded RNA. Described as above. The following applies: 20 μM compound, 30° C., lower % = stronger binding. On the procedure:
as §1, §2, §3

Experiment [4] concerns Staphylococcus aureus (ATCC 43300). Briefly: Antibacterial MIC, broth microdilution (CLSI). Format: cell-based. Particulars: for MIC80: Staphylococcus aureus, ATCC43300, read-out: MIC80 S. aureus. Background: Broth dilution looks for growth in wells or tubes with falling amounts of substance.
Experiment [5] concerns Enterococcus faecalis (ATCC 51299). Briefly: Antibacterial MIC, broth microdilution (CLSI). The following applies: for MIC80: Enterococcus faecalis, ATCC51299, read-out: MIC80 E. faecalis. Format: cell-based.
For the next experiment, the system named is T. vaginalis. Put plainly: Trichomonas resorufin assay. Format: cell-based. Particulars: Trichomonas vaginalis, read-out: IC50 T. vaginalis.

What is called MIC80 is an inhibitory concentration at the 80% level, which refers to growth in some studies and to a panel of isolates in others. As a reminder, the IC50 is the concentration that gives 50% inhibition. Regarding `CC(C)NC(=O)c1cc(NC(=O)c2cc(NC(=O)c3ccc(/C=C/c4cnc5ccccc5c4)cc3)cn2C)cn1C` [IVa4, (E)-N-isopropyl-1-methyl-4-(1-methyl-4-(4-(2-(quinolin-3-yl)vinyl)benzamido)-1H-pyrrole-2-carboxamido)-1H-pyrrole-2-carboxamide], the MIC80 was over 100 µM in experiment [1], under 5 µM in experiment [4] and 25 to 100 µM (≈ 14 to 56.1 µg/mL) in experiment [5]. Further, the “% Normalised Fluorescence with gDNA” value in experiment [2] is listed as 15%. In addition, the “% Normalised Fluorescence with polyAU RNA” value in experiment [3] came out at 81%. Further, in the experiment on T. vaginalis, the IC50 was in the range of 5 to 50 µM.

Take `Cn1cc(NC(=O)c2cc(NC(=O)c3ccc(/C=C/c4cnc5ccccc5c4)cc3)cn2C)cc1C(=O)NCCCCN1CCCCC1` [IVa11, (E)-1-methyl-4-(1-methyl-4-(4-(2-(quinolin-3-yl)vinyl)benzamido)-1H-pyrrole-2-carboxamido)-N-(4-(piperidin-1-yl)butyl)-1H-pyrrole-2-carboxamide]: the MIC80 in experiment [1] is over 100 µM; in experiment [4], 5 to 25 µM (≈ 3.29 to 16.4 µg/mL); in experiment [5] it was 5 to 25 µM (≈ 3.29 to 16.4 µg/mL). Besides, the “% Normalised Fluorescence with gDNA” value in experiment [2] turned out to be 42%. The “% Normalised Fluorescence with polyAU RNA” value in experiment [3] was found to be 68%.

Take `Cn1cc(NC(=O)c2cc(NC(=O)c3ccc(/C=C/c4cnc5ccccc5c4)cc3)cn2C)cc1C(=O)NCCCCN1CCCC1` [IVa12, (E)-1-methyl-4-(1-methyl-4-(4-(2-(quinolin-3-yl)vinyl)benzamido)-1H-pyrrole-2-carboxamido)-N-(4-(pyrrolidin-1-yl)butyl)-1H-pyrrole-2-carboxamide]: the results for the MIC80 in experiment [1], in experiment [4] and in experiment [5] were over 100 µM, 5 to 25 µM (≈ 3.22 to 16.1 µg/mL) and under 5 µM, respectively. Also, the “% Normalised Fluorescence with gDNA” value in experiment [2] is on record as 50%. In experiment [3], the “% Normalised Fluorescence with polyAU RNA” value is 71%.

As to `CNC(=O)c1cc(NC(=O)c2cc(NC(=O)c3ccc(/C=C/c4ccc(N(C)C)cc4)nc3)cn2C)cn1C` [IVa13, (E)-6-(4-(dimethylamino)styryl)-N-(1-methyl-5-((1-methyl-5-(methylcarbamoyl)-1H-pyrrol-3-yl)carbamoyl)-1H-pyrrol-3-yl)nicotinamide], the figures for the MIC80 in experiment [1], in experiment [4] and in experiment [5] were over 100 µM, under 5 µM and under 5 µM, respectively. Also, the “% Normalised Fluorescence with gDNA” value in experiment [2] is recorded as 80%. Also, the “% Normalised Fluorescence with polyAU RNA” value in experiment [3] is 83%.

For the molecule `CN(C)c1ccc(/C=C/c2ccc(C(=O)Nc3cc(C(=O)Nc4cc(C(=O)NCCCCN5CCCCC5)n(C)c4)n(C)c3)cn2)cc1` [IVa14, (E)-6-(4-(dimethylamino)styryl)-N-(1-methyl-5-((1-methyl-5-((4-(piperidin-1-yl)butyl)carbamoyl)-1H-pyrrol-3-yl)carbamoyl)-1H-pyrrol-3-yl)nicotinamide], the MIC80 is over 100 µM in experiment [1], 5 to 25 µM (≈ 3.25 to 16.3 µg/mL) in experiment [4] and 25 to 100 µM (≈ 16.3 to 65.1 µg/mL) in experiment [5]. Moreover, in experiment [2], the “% Normalised Fluorescence with gDNA” value turned out to be 19%. Further, the “% Normalised Fluorescence with polyAU RNA” value in experiment [3] was found to be 12%.

For the molecule `CN(C)c1ccc(/C=C/c2ccc(C(=O)Nc3cc(C(=O)Nc4cc(C(=O)NCCCCN5CCCC5)n(C)c4)n(C)c3)cn2)cc1` [IVa15, (E)-6-(4-(dimethylamino)styryl)-N-(1-methyl-5-((1-methyl-5-((4-(pyrrolidin-1-yl)butyl)carbamoyl)-1H-pyrrol-3-yl)carbamoyl)-1H-pyrrol-3-yl)nicotinamide], the MIC80 in experiment [1] was over 100 µM; in experiment [4], over 100 µM; in experiment [5] it was 25 to 100 µM (≈ 15.9 to 63.7 µg/mL). For the same molecule, the “% Normalised Fluorescence with gDNA” value in experiment [2] is 15%. Further, the “% Normalised Fluorescence with polyAU RNA” value in experiment [3] was 8%.

Take `CCNC(=N)CCNC(=O)c1cc(NC(=O)c2cc(NC(=O)c3ccc(/C=C/c4ccc(OC)cc4)cc3)cn2C)cn1C` [Ia20, (E)-N-(3-(ethylamino)-3-iminopropyl)-4-(4-(4-(4-methoxystyryl)benzamido)-1-methyl-1H-pyrrole-2-carboxamido)-1-methyl-1H-pyrrole-2-carboxamide]: the MIC80 in experiment [1] lay within 25 to 100 µM (≈ 14.9 to 59.6 µg/mL); in experiment [4], 5 to 25 µM (≈ 2.98 to 14.9 µg/mL); in experiment [5], 5 to 25 µM (≈ 2.98 to 14.9 µg/mL). Besides, the “% Normalised Fluorescence with gDNA” value in experiment [2] was determined as 3%. In addition, the “% Normalised Fluorescence with polyAU RNA” value in experiment [3] stood at 6%.

As to `CC/N=C(/CCNC(=O)c1cc(NC(=O)c2cc(NC(=O)c3ccc(/C=C/c4ccc5nonc5c4)cc3)cn2C)cn1C)NCC` [Ia25, 4-(4-((E)-2-(benzo[c][1,2,5]oxadiazol-5-yl)vinyl)benzamido)-N-(5-(((Z)-3-(ethylamino)-3-(ethylimino)propyl)carbamoyl)-1-methyl-1H-pyrrol-3-yl)-1-methyl-1H-pyrrole-2-carboxamide], the figures for the MIC80 in experiment [1], in experiment [4] and in experiment [5] were over 100 µM, 25 to 100 µM (≈ 15.9 to 63.6 µg/mL) and over 100 µM, respectively. The “% Normalised Fluorescence with gDNA” value in experiment [2] came out at 28%. In experiment [3], the “% Normalised Fluorescence with polyAU RNA” value amounted to 12%.

For `CONC(=N)CCNC(=O)c1cc(NC(=O)c2cc(NC(=O)c3ccc(/C=C/c4cnc5ccccc5c4)cc3)cn2C)cn1C` [Ia28, (E)-N-(3-imino-3-(methoxyamino)propyl)-1-methyl-4-(1-methyl-4-(4-(2-(quinolin-3-yl)vinyl)benzamido)-1H-pyrrole-2-carboxamido)-1H-pyrrole-2-carboxamide], the MIC80 in experiment [1] was over 100 µM; in experiment [4], under 5 µM; in experiment [5], under 5 µM. For the same molecule, the “% Normalised Fluorescence with gDNA” value in experiment [2] was found to be 34%. Besides, the “% Normalised Fluorescence with polyAU RNA” value in experiment [3] is recorded as 66%.

In the case of `[H]/N=C(\CCNC(=O)c1cc(NC(=O)c2cc(NC(=O)c3ccc(C=Cc4ccc5nonc5c4)cc3)cn2C)cn1C)NCCOCCOCCOC` [Ia40, (E)-4-(4-(2-(benzo[c][1,2,5]oxadiazol-5-yl)vinyl)benzamido)-N-(5-((12-imino-2,5,8-trioxa-11-azatetradecan-14-yl)carbamoyl)-1-methyl-1H-pyrrol-3-yl)-1-methyl-1H-pyrrole-2-carboxamide], the MIC80 in experiment [1] is over 100 µM; in experiment [4] it was under 5 µM; in experiment [5], 5 to 25 µM (≈ 3.63 to 18.1 µg/mL). Also, the “% Normalised Fluorescence with gDNA” value in experiment [2] is given as 32%. Moreover, the “% Normalised Fluorescence with polyAU RNA” value in experiment [3] is given as 13%.

For the molecule `CN1CCN(CCNC(=N)CCNC(=O)c2cc(NC(=O)c3cc(NC(=O)c4ccc(/C=C/c5cnc6ccccc6c5)cc4)cn3C)cn2C)CC1` [Ia41, (E)-N-(3-imino-3-((2-(4-methylpiperazin-1-yl)ethyl)amino)propyl)-1-methyl-4-(1-methyl-4-(4-(2-(quinolin-3-yl)vinyl)benzamido)-1H-pyrrole-2-carboxamido)-1H-pyrrole-2-carboxamide], the MIC80 in experiment [1] is over 100 µM; in experiment [4], 5 to 25 µM (≈ 3.57 to 17.9 µg/mL); in experiment [5], 25 to 100 µM (≈ 17.9 to 71.5 µg/mL). Also, the “% Normalised Fluorescence with gDNA” value in experiment [2] was found to be 16%. For the same molecule, the “% Normalised Fluorescence with polyAU RNA” value in experiment [3] is 6%.

Consider `[H]/N=C(\CCNC(=O)c1cc(NC(=O)c2cc(NC(=O)c3ccc(C=Cc4ccc5nonc5c4)cc3)cn2C)cn1C)NCCN1CCN(C)CC1` [Ia42, (E)-4-(4-(2-(benzo[c][1,2,5]oxadiazol-5-yl)vinyl)benzamido)-N-(5-((3-imino-3-((2-(4-methylpiperazin-1-yl)ethyl)amino)propyl)carbamoyl)-1-methyl-1H-pyrrol-3-yl)-1-methyl-1H-pyrrole-2-carboxamide], for which the MIC80 was over 100 µM in experiment [1], 5 to 25 µM (≈ 3.53 to 17.6 µg/mL) in experiment [4] and 5 to 25 µM (≈ 3.53 to 17.6 µg/mL) in experiment [5]. For the same molecule, the “% Normalised Fluorescence with gDNA” value in experiment [2] came out at 20%. In addition, in experiment [3], the “% Normalised Fluorescence with polyAU RNA” value was 4%.

`[H]/N=C(\CCNC(=O)c1cc(NC(=O)c2cc(NC(=O)c3ccc(C=Cc4ccc5nonc5c4)cc3)cn2C)cn1C)NCCc1ccccc1` [Ia43, (E)-4-(4-(2-(benzo[c][1,2,5]oxadiazol-5-yl)vinyl)benzamido)-N-(5-((3-imino-3-(phenethylamino)propyl)carbamoyl)-1-methyl-1H-pyrrol-3-yl)-1-methyl-1H-pyrrole-2-carboxamide]: the MIC80 is over 100 µM in experiment [1], under 5 µM in experiment [4] and under 5 µM in experiment [5]. In addition, the “% Normalised Fluorescence with gDNA” value in experiment [2] was 15%. Besides, the “% Normalised Fluorescence with polyAU RNA” value in experiment [3] came to 42%.

In the case of `CCCCCCC[N+](C)(C)CCNC(=O)c1cc(NC(=O)c2cc(NC(=O)c3ccc(/C=C/c4cnc5ccccc5c4)cc3)cn2C)cn1C` [Ic6, (E)-N,N-dimethyl-N-(2-(1-methyl-4-(1-methyl-4-(4-(2-(quinolin-3-yl)vinyl)benzamido)-1H-pyrrole-2-carboxamido)-1H-pyrrole-2-carboxamido)ethyl)heptan-1-aminium], the “MIC80 E. coli” value in experiment [1] (MIC at 80% inhibition, ATCC 25922) is reported as “— (— means MIC80 > 100 μM)”. Moreover, the “% Normalised Fluorescence with gDNA” value in experiment [2] came out at 50%. Also, the “% Normalised Fluorescence with polyAU RNA” value in experiment [3] turned out to be 12%. The “MIC80 S. aureus” value in experiment [4] (MIC at 80% inhibition, ATCC 43300) is “*** (*** means MIC80 <= 5 μM)”. Moreover, the “MIC80 E. faecalis” value in experiment [5] (MIC at 80% inhibition, ATCC 51299) is “** (** means 5 μM < MIC80 <= 25 μM)”.
